Results: patent US6982330B2, “Carbazole based compound, coloring material, colored high molecular organic material and electroluminescent material” (Dai Nippon Printing Co., LTD, priority 2002, dated 2006)

What was measured:
[1] = Solubility to solvent (toluene or xylene, 2% by weight, 50° C.); assay type: physicochemical; conditions: added so as to make concentration 2% by weight, stirred at 50° C. for one hour
Procedure: The carbazole based compound of the formula (4) synthesized in Example 1 was added in the toluene or xylene so as to make concentration at 2% by weight, and then stirred in a thermal condition at 50° C. for one hour.

[2] = Suppressibility of crystallization (film formation ability) of spin-coated layer on glass plate; assay type: physicochemical; conditions: dried at ambient temperature 30 minutes
Procedure: A toluene solution containing 2% by weight of the carbazole based compound of the formula (4) synthesized in Example 1 was prepared. Also, the other toluene solution containing 2% by weight of the same carbazole based compound and 2% by weight of an acrylic binder resin was prepared.
For the comparative examples, the other toluene solution containing 2% by weight of the carbazole (available from Sigma Aldrich Co,.) and the still other toluene solution containing 2% by weight of the carbazole and 2% by weight of the acrylic binder resin were prepared.
2 ml of the each toluene solution was dropped on a non-alkaline glass plate with 5 cm-square shape, and carried out a spin coating at 1,000 rotation per minute for about 2 seconds. Thereafter, it was dried at ambient temperature for 30 minutes, and then a surface of the coating layer was observed and evaluation was carried out regarding suitablility of coating and film-formation process and suppressibility of crystallizing.

SMILES	solubility in toluene or xylene [1]	crystallization of coating layer (visual observation) ([2]; toluene solution containing 2% by weight of compound alone)	crystallization of coating layer (visual observation) ([2]; toluene solution containing 2% by weight of compound and 2% by weight of acrylic binder resin)
c1cc2cccc3c4cccc5cccc(c(c1)c23)c54 [perylene]	solubility was insufficient	–	–
c1ccc2c(c1)[nH]c1ccccc12 [carbazole]	–	crystallized to an extent that findable by visual observation	crystallized to an extent that findable by visual observation
